The source of these data is patent US10752587B2, “Homobispiperidinyl derivatives as liver X receptor beta agonists, compositions and their use” (Merck Sharp & Dohme Corp., priority 2015, dated 2020).

Test [1] addresses T1, glutathione-S-transferase (GST) tagged LXRbeta LBD (ligand binding domain) (Homo sapiens, UniProt P55055).
T1 construct: purchased Invitrogen pv4658.pps
T1 sequence (P55055 222-460 limits assumed): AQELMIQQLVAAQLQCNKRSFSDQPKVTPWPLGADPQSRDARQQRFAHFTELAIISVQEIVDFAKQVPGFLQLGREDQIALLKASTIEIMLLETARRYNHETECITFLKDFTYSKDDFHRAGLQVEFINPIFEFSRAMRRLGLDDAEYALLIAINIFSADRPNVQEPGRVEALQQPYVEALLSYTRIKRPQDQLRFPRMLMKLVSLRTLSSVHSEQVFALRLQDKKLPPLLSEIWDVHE
Kind of test: LanthaScreen TR-FRET Liver X Receptor Coactivator Assay, co-activator recruitment to LXRbeta LBD. It counts as biochemical. The following applies: for Emax: read-out: LXR beta Activity @ max dose (%); for EC50: potency (Inflection Point, IP), co-activator recruitment to LXRbeta LBD, in relation to T0901317. In a few lines:
(§1)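 Readout is time-resolved FRET between a terbium anti-GST antibody bound to the LBD and a fluorescein-tagged coactivator peptide recruited on ligand binding. Plates were incubated at room temperature before reading. Potency (IP) and efficacy (Emax) are referenced to T0901317.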
(In general: TR-FRET usually uses a lanthanide donor and a delayed reading to cut background.)

The target of test [2] is T2, glutathione-S-transferase (GST) tagged LXRalpha LBD (ligand binding domain) (Homo sapiens, UniProt Q13133).
T2 construct: purchased Invitrogen pv4655
T2 sequence (Q13133 209-447 limits assumed): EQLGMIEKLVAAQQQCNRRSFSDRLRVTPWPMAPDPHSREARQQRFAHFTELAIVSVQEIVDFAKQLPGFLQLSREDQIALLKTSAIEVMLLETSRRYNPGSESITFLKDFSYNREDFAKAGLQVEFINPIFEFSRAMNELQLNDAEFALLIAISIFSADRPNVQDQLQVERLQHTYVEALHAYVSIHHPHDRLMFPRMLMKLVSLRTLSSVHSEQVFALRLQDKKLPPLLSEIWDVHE
Kind of test: LanthaScreen TR-FRET Liver X Receptor Coactivator Assay, co-activator recruitment to LXRalpha LBD. It is filed as biochemical. The following applies: for Emax: read-out: LXR alpha Activity @ max dose (%); for LXR alpha IP (nM) / EC50: potency (Inflection Point, IP), co-activator recruitment to LXRalpha LBD, in relation to T0901317; for EC50: read-out: LXR alpha IP. The procedure, abridged:
as §1

[3] abbreviates: efficacy at max dose, in relation to reference dual agonist T0901317.

SMILES strings stand for the structures. Read-outs that look alike come from different tables or passages of the source.

For `CC(C)(C)OC(=O)NC1CN(C(=O)c2ccc(N3CCC(CC4CCN(C(=O)[C@](O)(c5cc(Cl)cc(Cl)c5)C(F)(F)F)CC4)CC3)cc2Cl)C1` [Example 4-25, tert-butyl [1-({2-chloro-4-[4-({1-[(2R)-2-(3,5-dichlorophenyl)-3,3,3-trifluoro-2-hydroxypropanoyl]piperidin-4-yl}methyl)piperidin-1-yl]phenyl}carbonyl)azetidin-3-yl]carbamate], the Emax in test [1] (setting [3]) worked out at 40%; in test [2] (setting [3]), 0%. Also, the EC50 in test [1] (read-out: LXR beta IP) amounted to 3 nM. Moreover, the “LXR alpha IP (nM)” value in test [2] is on record as “NO IP”.

Turning to `CN(CCn1cncn1)C(=O)c1ccc(N2CCC(CC3CCN(C(=O)[C@](O)(c4cc(Cl)cc(Cl)c4)C(F)(F)F)CC3)CC2)cc1Cl` [Example 4-26, 2-chloro-4-[4-({1-[(2R)-2-(3,5-dichlorophenyl)-3,3,3-trifuoro-2-hydroxypropanoyl]piperidin-4-yl}methyl)piperidin-1-yl]-N-methyl-N-[2-(1H-1,2,4-triazol-1-yl)ethyl]benzamide], the Emax came to 67% in test [1] (setting [3]) and 3% in test [2] (setting [3]). In addition, in test [1] (read-out: LXR beta IP), the EC50 is 4 nM. The “LXR alpha IP (nM)” value in test [2] is given as “NO IP”.

Regarding `COc1cccc([C@@](O)(C(=O)N2CCC(C(=O)N3CCN(c4ccc(C(=O)N(C)C)c(Cl)c4)CC3)CC2)C(F)(F)F)c1` [Example 5-1, (R)-2-chloro-N,N-dimethyl-4-(4-(1-(3,3,3-trifluoro-2-hydroxy-2-(3-methoxyphenyl)propanoyl)piperidine-4-carbonyl)piperazin-1-yl)benzamide], in test [1] (LXR beta IP (nM)), the EC50 was determined as 12400 nM. Further, the Emax in test [1] is 31%. In test [2], the “LXR alpha IP (nM)” value is listed as “NO IP” and the Emax was 5%.

`CN(C)C(=O)c1ccc(N2CCN(CC3CCN(C(=O)[C@](O)(c4ccccc4)C(F)(F)F)CC3)CC2)cc1Cl` [Example 6-1, 2-chloro-N,N-dimethyl-4-[4-({1-[(2R)-3,3,3-trifluoro-2-hydroxy-2-phenylpropanoyl]piperidin-4-yl}methyl)piperazin-1-yl]benzamide]: the EC50 in test [1] (read-out: LXR beta IP) is 84 nM; in test [2], 9030 nM. In addition, the figures for the Emax in test [1] and in test [2] (setting [3]) were 60% and 29%, respectively.

Turning to `CN(C)C(=O)c1ccc(N2CCCN(CC3CCN(C(=O)C(O)(c4cccc(Cl)c4)C(F)(F)F)CC3)CC2)cc1Cl` (centres unmarked) [Example 6-2, 2-chloro-4-[4-({1-[2-(3-chlorophenyl)-3,3,3-trifluoro-2-hydroxypropanoyl]piperidin-4-yl}methyl)-1,4-diazepan-1-yl]-N,N-dimethylbenzamide], the Emax amounted to 98% in test [1] (setting [3]) and 14% in test [2] (setting [3]). The EC50 in test [1] (read-out: LXR beta IP) came to 533 nM. The “LXR alpha IP (nM)” value in test [2] is recorded as “NO IP”.

`CN(C)C(=O)c1ccc(N2[C@@H]3CC[C@H]2CN(CC2CCN(C(=O)[C@](O)(c4ccccc4)C(F)(F)F)CC2)C3)cc1Cl` [Example 6-3, 2-chloro-N,N-dimethyl-4-[(1R,5S)-3-({1-[(2R)-3,3,3-trifluoro-2-hydroxy-2-phenylpropanoyl]piperidin-4-yl}methyl)-3,8-diazabicyclo[3.2.1]oct-8-yl]benzamide]: the values for the Emax in test [1] (setting [3]) and in test [2] (setting [3]) were 37% and 18%, respectively. Further, in test [1] (read-out: LXR beta IP), the EC50 stood at 2550 nM. In addition, in test [2], the “LXR alpha IP (nM)” value is “NO IP”.

For `COc1cccc([C@@](O)(C(=O)N2CCC(CN3CCN(c4ccc(C(=O)N(C)C)c(Cl)c4)CC3)CC2)C(F)(F)F)c1` [Example 6-4, 2-chloro-N,N-dimethyl-4-[4-({1-[(2R)-3,3,3-trifluoro-2-hydroxy-2-(3-methoxyphenyl)propanoyl]piperidin-4-yl}methyl)piperazin-1-yl]benzamide], the Emax in test [1] (setting [3]) came to 34%; in test [2] (setting [3]), 4%. The EC50 in test [1] (read-out: LXR beta IP) came to 192 nM. In addition, the “LXR alpha IP (nM)” value in test [2] was “NO IP”.

As to `Cc1nc(N2CCC(CC3CCN(C(=O)[C@](O)(c4ccccc4)C(F)(F)F)CC3)CC2)ccc1C(=O)N(C)C` [Example 7-1, (R)—N,N,2-trimethyl-6-(4-((1-(3,3,3-trifluoro-2-hydroxy-2-phenylpropanoyl)piperidin-4-yl)methyl)piperidin-1-yl)nicotinamide], the Emax was determined as 80% in test [1] (setting [3]) and 35% in test [2] (setting [3]). Further, the EC50 in test [1] (read-out: LXR beta IP) amounted to 19 nM; in test [2] it was 895 nM.

Turning to `CN(C)C(=O)c1cnc(N2CCC(CC3CCN(C(=O)[C@](O)(c4ccccc4)C(F)(F)F)CC3)CC2)cc1Cl` [Example 7-2, 4-chloro-N,N-dimethyl-6-[4-({1-[(2R)-3,3,3-trifluoro-2-hydroxy-2-phenylpropanoyl]piperidin-4-yl}methyl)piperidin-1-yl] pyridine-3-carboxamide], the Emax worked out at 32% in test [1] (setting [3]) and 36% in test [2] (setting [3]). In addition, the EC50 in test [1] (read-out: LXR beta IP) amounted to 4670 nM. Further, in test [2], the “LXR alpha IP (nM)” value is listed as “NO IP”.

As for `Cc1cc(N2CCC(CC3CCN(C(=O)[C@](O)(c4ccccc4)C(F)(F)F)CC3)CC2)ncc1C(=O)N(C)C` [Example 7-3, N,N,4-trimethyl-6-[4-({1-[(2R)-3,3,3-trifluoro-2-hydroxy-2-phenylpropanoyl]piperidin-4-yl}methyl)piperidin-1-yl]pyridine-3-carboxamide], the Emax is 71% in test [1] (setting [3]) and 23% in test [2] (setting [3]). The EC50 is 153 nM in test [1] (read-out: LXR beta IP) and 2180 nM in test [2].

In the case of `Cc1cc(N2CCC(CC3CCN(C(=O)C(O)(c4cccc(Cl)c4)C(F)(F)F)CC3)CC2)ncc1C(=O)N(C)C` (centres unmarked) [Example 7-4, 6-[4-({1-[2-(3-chlorophenyl)-3,3,3-trifluoro-2-hydroxypropanoyl]piperidin-4-yl}methyl)piperidin-1-yl]-N,N,4-trimethylpyridine-3-carboxamide], the EC50 is 52 nM in test [1] (read-out: LXR beta IP) and 1330 nM in test [2]. The Emax turned out to be 63% in test [1] and 19% in test [2].

In the case of `COc1cccc([C@@](O)(C(=O)N2CCC(CC3CCN(c4ccc(C(=O)N(C)C)c(C)n4)CC3)CC2)C(F)(F)F)c1` [Example 7-5, N,N,2-trimethyl-6-[4-({1-[(2R)-3,3,3-trifluoro-2-hydroxy-2-(3-methoxyphenyl)propanoyl]piperidin-4-yl}methyl)piperidin-1-yl]pyridine-3-carboxamide], the Emax was determined as 69% in test [1] (setting [3]) and 8% in test [2] (setting [3]). For the same compound, the EC50 in test [1] (read-out: LXR beta IP) worked out at 25 nM. Besides, in test [2], the “LXR alpha IP (nM)” value is “NO IP”.

Regarding `Cc1cccc(C(O)(C(=O)N2CCC(CC3CCN(c4ccc(C(=O)N(C)C)c(C)n4)CC3)CC2)C(F)(F)F)c1` (centres unmarked) [Example 7-6, N,N,2-trimethyl-6-[4-({1-[3,3,3-trifluoro-2-hydroxy-2-(3-methylphenyl)propanoyl]piperidin-4-yl}methyl)piperidin-1-yl]pyridine-3-carboxamide], the Emax in test [1] (setting [3]) was determined as 70%; in test [2] (setting [3]) it was 11%. The EC50 in test [1] (read-out: LXR beta IP) was 46 nM. The “LXR alpha IP (nM)” value in test [2] was “NO IP”.

`Cc1nc(N2CCC(CC3CCN(C(=O)C(O)(c4cccc(Cl)c4)C(F)(F)F)CC3)CC2)ccc1C(=O)N(C)C` (centres unmarked) [Example 7-7, 6-[4-({1-[2-(3-chlorophenyl)-3,3,3-trifluoro-2-hydroxypropanoyl]piperidin-4-yl}methyl)piperidin-1-yl]-N,N,2-trimethylpyridine-3-carboxamide]: the EC50 in test [1] (read-out: LXR beta IP) came to 36 nM; in test [2] it was 508 nM. The values for the Emax in test [1] and in test [2] were 95% and 24%, respectively.
